Literature values in patent US4994542A, “Surgical adhesive” (Asahi Glass Co., Ltd., priority 1988, dated 1991).

Columns and labels:
[1] = aromatic polyisocyanates, general statement
[2] = hydrolysis products of TDI and MDI

Row | Substance | mutagenic activity [1] | activity in a microbial mutagenicity test (Ames test) [2]
1 | diphenylmethane diisocyanates [MDI] | high mutagenic activity | 
2 | tolylene diisocyanates [TDI] | high mutagenic activity | 
3 | diaminodiphenylmethane |  | high activity
4 | tolylene diamine |  | high activity
